Data published in ChEMBL document CHEMBL1201862, “PubChem BioAssay data set” (2004).
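Following 48 hours of exposure in 96-well plates, responses at five concentrations were used to interpolate endpoints linearly. Abbreviation: GI50, concentration required for 50% inhibition of growth.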 Active and inactive are the calls of the source. Cut-off read from the data, not from the text of the source: active = GI50 up to about 1.1 µM and inactive = higher. Starred links: 1 amine or outer side, 2 acyl side, 3 side chain; linkers in the order of their positions; H or OH if unused. Positions of bridges follow the written chain, without caps; N, C: chain ends. Non-standard residues stand in square brackets, D forms with d. Residues, ends and D or L forms follow the SMILES beside them. Chains are numbered I, II in the order given. ξ: configuration not given here. X42 = N=C(N)NCCC[C@H](NC(=N)CCCCCCC(=N)N[C@@H](CCCNC(=N)N)C(=O)[*:2])C(=O)[*:1]; Oic(3aξ,7aξ) = O=C(O)[C@@H]1CC2CCCCC2N1; Igl = N[C@H](C(=O)O)C1Cc2ccccc2C1; Hyp = O=C(O)[C@@H]1C[C@@H](O)CN1

Columns and labels:
Test in all cases: inhibition of tumour cell growth, NCI panel, 48 h
SW-620 = test system: SW-620
Malme-3M = test system: Malme-3M
HCT-116 = test system: HCT-116
NCI-H522 = test system: NCI-H522
MDA-MB-435 = test system: MDA-MB-435
MDA-N = test system: MDA-N
HCT-15 = test system: HCT-15
OVCAR-5 = test system: OVCAR-5
SNB-75 = test system: SNB-75
SK-OV-3 = test system: SK-OV-3
EKVX = test system: EKVX
OVCAR-3 = test system: OVCAR-3
U-251 = test system: U-251
UACC-62 = test system: UACC-62
A498 = test system: A498
HT-29 = test system: HT-29
K562 = test system: K562
BT-549 = test system: BT-549
HCC 2998 = test system: HCC 2998

Structure (SMILES)	GI50 (SW-620)	GI50 (Malme-3M)	GI50 (HCT-116)	GI50 (NCI-H522)	GI50 (MDA-MB-435)	GI50 (MDA-N)	GI50 (HCT-15)	GI50 (OVCAR-5)	GI50 (SNB-75)	GI50 (SK-OV-3)	GI50 (EKVX)	GI50 (OVCAR-3)	GI50 (U-251)	GI50 (UACC-62)	GI50 (A498)	GI50 (HT-29)	GI50 (K562)	GI50 (BT-549)	GI50 (HCC 2998)
CC(O)C1(CNc2cc(Cl)nc(N)n2)CC(CCc2ccccc2)C1 (centres undefined)	15.8 µM (inactive)	13.3 µM (inactive)	8.28 µM (inactive)	8.41 µM (inactive)	13.7 µM (inactive)	12.9 µM (inactive)	11.6 µM	17.2 µM (inactive)	15.5 µM (inactive)	15.1 µM (inactive)	10.2 µM (inactive)	16.1 µM (inactive)	14.5 µM (inactive)	11.9 µM (inactive)	13.7 µM (inactive)	13 µM (inactive)	6.78 µM (inactive)	15.9 µM (inactive)	
COc1cccc(C(=O)O)c1Cc1cccc2ccccc12	> 100 µM (inactive)	> 100 µM (inactive)	> 100 µM (inactive)	> 100 µM (inactive)			> 100 µM	> 100 µM (inactive)	> 100 µM (inactive)	> 100 µM (inactive)	> 100 µM (inactive)	> 100 µM (inactive)	> 100 µM (inactive)	> 100 µM (inactive)		> 100 µM (inactive)	> 100 µM (inactive)		> 100 µM (inactive)
Nc1cccc2c1C(=O)c1cccc(N)c1C2=O	> 100 µM (inactive)	> 100 µM (inactive)	> 100 µM (inactive)	> 100 µM (inactive)			> 100 µM	> 100 µM (inactive)	> 100 µM (inactive)	> 100 µM (inactive)	> 100 µM (inactive)	> 100 µM (inactive)	> 100 µM (inactive)	> 100 µM (inactive)	> 100 µM (inactive)	> 100 µM (inactive)	> 100 µM (inactive)		> 100 µM (inactive)
OC(c1cc2ccccc2[nH]1)C1(c2cccnc2)SCCCS1 (centres undefined)	90.6 µM (inactive)	87.3 µM (inactive)	59 µM (inactive)	38.5 µM (inactive)	33.6 µM (inactive)	52.2 µM (inactive)	84.7 µM	24.1 µM (inactive)	73.6 µM (inactive)	> 100 µM (inactive)	21.2 µM (inactive)		47.1 µM (inactive)	50.9 µM (inactive)	17.9 µM (inactive)	33 µM (inactive)	27.2 µM (inactive)	57.9 µM (inactive)	
C/C(=N\NC(=S)NC(C)C)c1nc2cccnc2[nH]1	12.1 µM (inactive)	33.9 µM (inactive)	11.3 µM (inactive)	13.8 µM (inactive)		> 100 µM (inactive)	11.3 µM	28.8 µM (inactive)	28.1 µM (inactive)	12.7 µM (inactive)	13.5 µM (inactive)	6.62 µM (inactive)	21.3 µM (inactive)	29.8 µM (inactive)	> 47.6 µM (inactive)	12.8 µM (inactive)	4.48 µM (inactive)	15.5 µM (inactive)	19.4 µM (inactive)
N=C(N)NCCC[C@H](NC(=O)[C@@H]1CC2CCCCC2N1C(=O)[C@@H](NC(=O)[C@H](CO)NC(=O)[C@@H](NC(=O)CNC(=O)[C@@H]1CCCN1C(=O)[C@H](CCCNC(=N)N)NC(=O)[C@H](CCCNC(=N)N)NC(=N)CCCCCCC(=N)N[C@@H](CCCNC(=N)N)C(=O)N[C@@H](CCCNC(=N)N)C(=O)N1CCC[C@H]1C(=O)N1C[C@H](O)C[C@H]1C(=O)NCC(=O)N[C@H](C(=O)N[C@@H](CO)C(=O)N[C@H](C(=O)N1C2CCCCC2C[C@H]1C(=O)N[C@@H](CCCNC(=N)N)C(=O)O)C1Cc2ccccc2C1)C1Cc2ccccc2C1)C1Cc2ccccc2C1)C1Cc2ccccc2C1)C(=O)O (some centres undefined) (I: RP[Hyp]G[Igl]S[Igl][Oic(3aξ,7aξ)]R-OH / II: RPG[Igl]S[Igl][Oic(3aξ,7aξ)]R-OH; linker I:N-II:N via X42)	2.28 µM (inactive)	2.31 µM (inactive)	4.38 µM (inactive)	5.89 µM (inactive)	1.99 µM (inactive)	2.08 µM (inactive)	2.22 µM	3.48 µM (inactive)		1.83 µM (inactive)	2.03 µM (inactive)	1.79 µM (inactive)	2.48 µM (inactive)	1.83 µM (inactive)		0.138 µM (active)	0.993 µM (active)		
O=C1NC(=O)C(C(c2ccc(Cl)cc2)C2C(=O)NC(=O)NC2=O)C(=O)N1.c1ccncc1	> 100 µM (inactive)	> 100 µM (inactive)	> 100 µM (inactive)	> 100 µM (inactive)	> 100 µM (inactive)	> 100 µM (inactive)	> 100 µM	> 100 µM (inactive)			> 100 µM (inactive)	> 100 µM (inactive)	> 100 µM (inactive)	> 100 µM (inactive)	> 100 µM (inactive)	> 100 µM (inactive)	> 100 µM (inactive)	> 100 µM (inactive)	
COC(=O)c1c(O)ccc2c1c1cc3ccccc3cc1n2Cc1cc(OC)cc(OC)c1	3.61 µM (inactive)	1.22 µM (inactive)	1.13 µM (inactive)	0.194 µM (active)	0.321 µM (active)	0.43 µM (active)	1.46 µM	9.64 µM (inactive)	2.51 µM (inactive)	1.43 µM (inactive)	6.3 µM (inactive)	0.339 µM (active)	4.45 µM (inactive)	3.13 µM (inactive)	9.02 µM (inactive)	11 µM (inactive)	1.96 µM (inactive)		3.88 µM (inactive)
O=C(O)/C=C\C(=O)Nc1ccccn1	> 100 µM (inactive)	> 100 µM (inactive)	> 100 µM (inactive)	> 100 µM (inactive)	> 100 µM (inactive)	> 100 µM (inactive)	> 100 µM	> 100 µM (inactive)	> 100 µM (inactive)	> 100 µM (inactive)	> 100 µM (inactive)	> 100 µM (inactive)	> 100 µM (inactive)	> 100 µM (inactive)	> 100 µM (inactive)	> 100 µM (inactive)	> 100 µM (inactive)	> 100 µM (inactive)	
Cc1c2c(n3c(nc4ccccc43)c1C#N)NCC2	> 10 µM (inactive)	> 10 µM (inactive)	> 10 µM (inactive)		> 10 µM (inactive)	> 10 µM (inactive)	> 10 µM	> 10 µM (inactive)	> 10 µM (inactive)	> 10 µM (inactive)	> 10 µM (inactive)	> 10 µM (inactive)	> 10 µM (inactive)	> 10 µM (inactive)	> 10 µM (inactive)	> 10 µM (inactive)	> 10 µM (inactive)	> 10 µM (inactive)	
O=c1[nH]c2ccc(Cl)cc2o1	> 100 µM (inactive)	> 100 µM (inactive)	> 100 µM (inactive)	96.4 µM (inactive)	> 100 µM (inactive)	> 100 µM (inactive)	> 100 µM	> 100 µM (inactive)	> 100 µM (inactive)	> 100 µM (inactive)	26.7 µM (inactive)	> 100 µM (inactive)	> 100 µM (inactive)	> 100 µM (inactive)	> 100 µM (inactive)	> 100 µM (inactive)	> 100 µM (inactive)	> 100 µM (inactive)	
CC(=O)O[C@@H]1C(=O)N(c2ccccc2)[C@@H]1c1cc2ccccc2c2ccccc12		22.9 µM (inactive)	27.5 µM (inactive)	3.01 µM (inactive)	16.8 µM (inactive)	43 µM (inactive)	33.1 µM	50 µM (inactive)		47.8 µM (inactive)	40.6 µM (inactive)	23.2 µM (inactive)	43.1 µM (inactive)	22.8 µM (inactive)	> 100 µM (inactive)	29 µM (inactive)	36.6 µM (inactive)		25.7 µM (inactive)
O=C1CCC(=O)N1CNc1ccc2c(c1)Sc1ccccc1O2	27.9 µM (inactive)	58.6 µM (inactive)	21.3 µM (inactive)	23.8 µM (inactive)	31.9 µM (inactive)	30.2 µM (inactive)	28.4 µM	43.9 µM (inactive)			22 µM (inactive)	26.5 µM (inactive)	30.3 µM (inactive)	48.9 µM (inactive)	53 µM (inactive)	23.5 µM (inactive)	49.8 µM (inactive)	26.6 µM (inactive)	
Sc1nnc(CCCCCCCCc2nnc(S)o2)o1	> 100 µM (inactive)		> 100 µM (inactive)		> 100 µM (inactive)	> 100 µM (inactive)	> 100 µM	> 100 µM (inactive)	> 100 µM (inactive)	> 100 µM (inactive)	> 100 µM (inactive)	> 100 µM (inactive)	> 100 µM (inactive)		> 100 µM (inactive)	> 100 µM (inactive)	> 100 µM (inactive)	> 100 µM (inactive)	
CCOC(=O)C1=C(Nc2cccc3ccccc23)OCC1=O	> 100 µM (inactive)	> 100 µM (inactive)	> 100 µM (inactive)	> 100 µM (inactive)				> 100 µM (inactive)	> 100 µM (inactive)	> 100 µM (inactive)	> 100 µM (inactive)	> 100 µM (inactive)	> 100 µM (inactive)	> 100 µM (inactive)	> 100 µM (inactive)	> 100 µM (inactive)	> 100 µM (inactive)		> 100 µM (inactive)
CSc1nc(C#N)c(N)n1C	> 100 µM (inactive)	> 100 µM (inactive)	> 100 µM (inactive)	> 100 µM (inactive)	> 100 µM (inactive)	> 100 µM (inactive)	> 100 µM	> 100 µM (inactive)		> 100 µM (inactive)	> 100 µM (inactive)	> 100 µM (inactive)	> 100 µM (inactive)	> 100 µM (inactive)	> 100 µM (inactive)		> 100 µM (inactive)	> 100 µM (inactive)	
